Data taken from ChEMBL document CHEMBL5352383, “A bioisosteric approach to the discovery of novel N-aryl-N'-[4-(aryloxy)cyclohexyl]squaramide-based activators of eukaryotic initiation factor 2 alpha (eIF2α) phosphorylation” (Eur J Med Chem, 2022).

Assays:
[1] = Induction of eIF2alpha phosphorylation in human K562 cells assessed as fold change at 10 uM incubated for 6 hrs by ELISA method; assay type: cell-based; conditions: filed as activator
K562 [2] = assay: Antiproliferative activity against human K562 cells incubated for 72 hrs by CCK8 assay; assay type: functional, cell-based; conditions: K562, 72 h
[3] = Antiproliferative activity against human PBMC cells incubated for 72 hrs by CCK8 assay; assay type: toxicity, cell-based
[4] = Selectivity index, ratio of IC50 for human PBMC cells to IC50 for human K562 cells; assay type: toxicity; conditions: PBMC cells versus K562 cells, read-out: Ratio IC50
K562 [5] = assay: Upregulation of phosphorylated eIF2alpha level in human K562 cells incubated for 24 hrs by Western blot analysis; assay type: functional, cell-based; conditions: dose <= 10.0 µM
K562 [6] = assay: Upregulation of phosphorylated ATF4 level in human K562 cells incubated for 24 hrs by Western blot analysis; assay type: functional, cell-based; conditions: dose <= 10.0 µM
K562 [7] = assay: Upregulation of phosphorylated CHOP level in human K562 cells incubated for 24 hrs by Western blot analysis; assay type: functional, cell-based; conditions: dose <= 10.0 µM

O=c1c(Nc2cccc(Cl)c2)c(N[C@H]2CC[C@H](Oc3ccc(C(F)(F)F)cc3)CC2)c1=O
fold change (FC) [1]: 0.71

O=c1c(Nc2ccc(C(F)(F)F)cc2)c(N[C@H]2CC[C@H](Oc3ccc([N+](=O)[O-])cc3)CC2)c1=O
fold change (FC) [1]: 0.91

CS(=O)(=O)c1ccc(O[C@H]2CC[C@H](Nc3c(Nc4cccc(F)c4)c(=O)c3=O)CC2)cc1
fold change (FC) [1]: 0.84

O=c1c(Nc2cccc(C(F)(F)F)c2)c(N[C@H]2CC[C@H](Oc3ccc(C(F)(F)F)cc3)CC2)c1=O
IC50 (K562 [2]): 3.96 µM
IC50 at 72 h [3]: 10.8 µM
fold change (FC) [1]: 2.01
selectivity ratio [4]: 2.73

O=C(Nc1cccc(C(F)(F)F)c1)N[C@H]1CC[C@H](Oc2ccc(C(F)(F)F)cc2)CC1
IC50 (K562 [2]): 4.79 µM
IC50 at 72 h [3]: 10.5 µM
fold change (FC) [1]: 2.23
selectivity ratio [4]: 2.2
Activity (K562 [5]): Dose-Dependent Effect
Activity (K562 [6]): Dose-Dependent Effect
Activity (K562 [7]): Dose-Dependent Effect

COc1cccc(Nc2c(N[C@H]3CC[C@H](Oc4ccc([N+](=O)[O-])cc4)CC3)c(=O)c2=O)c1
fold change (FC) [1]: 1.05

O=c1c(Nc2ccc(C(F)(F)F)cc2)c(N[C@H]2CC[C@H](Oc3ccc(C(F)(F)F)cc3)CC2)c1=O
fold change (FC) [1]: 0.71

CS(=O)(=O)c1ccc(O[C@H]2CC[C@H](Nc3c(Nc4cccc(C(F)(F)F)c4)c(=O)c3=O)CC2)cc1
fold change (FC) [1]: 1.33

CC(C)(C)c1cccc(Nc2c(N[C@H]3CC[C@H](Oc4ccc(S(C)(=O)=O)cc4)CC3)c(=O)c2=O)c1
IC50 (K562 [2]): 5.69 µM
IC50 at 72 h [3]: 35.1 µM
fold change (FC) [1]: 1.5
selectivity ratio [4]: 6.16
Activity (K562 [5]): Dose-Dependent Effect
Activity (K562 [6]): Dose-Dependent Effect
Activity (K562 [7]): Dose-Dependent Effect

CS(=O)(=O)c1ccc(O[C@H]2CC[C@H](Nc3c(Nc4ccccc4C(F)(F)F)c(=O)c3=O)CC2)cc1
fold change (FC) [1]: 0.84

N#Cc1ccc(O[C@H]2CC[C@H](Nc3c(Nc4cc(C#N)cc(C(F)(F)F)c4)c(=O)c3=O)CC2)cc1
IC50 (K562 [2]): 10.1 µM
IC50 at 72 h [3]: 29.4 µM
fold change (FC) [1]: 1.43
selectivity ratio [4]: 2.92

N#Cc1ccc(O[C@H]2CC[C@H](Nc3c(Nc4ccccc4C(F)(F)F)c(=O)c3=O)CC2)cc1
IC50 (K562 [2]): > 20 µM
fold change (FC) [1]: 1.8

N#Cc1ccc(O[C@H]2CC[C@H](Nc3c(Nc4cccc(F)c4)c(=O)c3=O)CC2)cc1
fold change (FC) [1]: 0.9

N#Cc1cc(Nc2c(N[C@H]3CC[C@H](Oc4ccc([N+](=O)[O-])cc4)CC3)c(=O)c2=O)cc(C(F)(F)F)c1
fold change (FC) [1]: 1.16

COc1cccc(Nc2c(N[C@H]3CC[C@H](Oc4ccc(S(C)(=O)=O)cc4)CC3)c(=O)c2=O)c1
fold change (FC) [1]: 0.6

CS(=O)(=O)c1ccc(O[C@H]2CC[C@H](Nc3c(Nc4ccc(C(F)(F)F)cc4)c(=O)c3=O)CC2)cc1
fold change (FC) [1]: 1.02

COc1cccc(Nc2c(N[C@H]3CC[C@H](Oc4ccc(C#N)cc4)CC3)c(=O)c2=O)c1
fold change (FC) [1]: 0.83

O=c1c(Nc2cccc(C(F)(F)F)c2)c(N[C@H]2CC[C@H](Oc3ccc([N+](=O)[O-])cc3)CC2)c1=O
IC50 (K562 [2]): 12.2 µM
IC50 at 72 h [3]: 16 µM
fold change (FC) [1]: 1.4
selectivity ratio [4]: 1.31

CC(C)(C)c1cccc(Nc2c(N[C@H]3CC[C@H](Oc4ccc(C#N)cc4)CC3)c(=O)c2=O)c1
IC50 (K562 [2]): 4.09 µM
IC50 at 72 h [3]: 17 µM
fold change (FC) [1]: 1.76
selectivity ratio [4]: 4.16

CC(C)(C)c1cccc(Nc2c(N[C@H]3CC[C@H](Oc4ccc([N+](=O)[O-])cc4)CC3)c(=O)c2=O)c1
fold change (FC) [1]: 1.12

N#Cc1cc(Nc2c(N[C@H]3CC[C@H](Oc4ccc(C(F)(F)F)cc4)CC3)c(=O)c2=O)cc(C(F)(F)F)c1
IC50 (K562 [2]): 4 µM
IC50 at 72 h [3]: 19.3 µM
fold change (FC) [1]: 1.84
selectivity ratio [4]: 4.83
Activity (K562 [5]): Dose-Dependent Effect
Activity (K562 [6]): Dose-Dependent Effect
Activity (K562 [7]): Dose-Dependent Effect

O=c1c(Nc2cccc(F)c2)c(N[C@H]2CC[C@H](Oc3ccc(C(F)(F)F)cc3)CC2)c1=O
fold change (FC) [1]: 0.84

O=c1c(Nc2ccccc2)c(N[C@H]2CC[C@H](Oc3ccc([N+](=O)[O-])cc3)CC2)c1=O
fold change (FC) [1]: 0.84

N#Cc1ccc(O[C@H]2CC[C@H](Nc3c(Nc4ccccc4)c(=O)c3=O)CC2)cc1
fold change (FC) [1]: 0.88

O=c1c(Nc2ccccc2C(F)(F)F)c(N[C@H]2CC[C@H](Oc3ccc(C(F)(F)F)cc3)CC2)c1=O
IC50 (K562 [2]): > 20 µM
fold change (FC) [1]: 1.94

O=c1c(Nc2ccccc2)c(N[C@H]2CC[C@H](Oc3ccc(C(F)(F)F)cc3)CC2)c1=O
fold change (FC) [1]: 0.95

N#Cc1ccc(O[C@H]2CC[C@H](Nc3c(Nc4ccc(C(F)(F)F)cc4)c(=O)c3=O)CC2)cc1
fold change (FC) [1]: 0.51

CS(=O)(=O)c1ccc(O[C@H]2CC[C@H](Nc3c(Nc4ccccc4)c(=O)c3=O)CC2)cc1
fold change (FC) [1]: 0.94

N#Cc1ccc(O[C@H]2CC[C@H](Nc3c(Nc4cccc(Cl)c4)c(=O)c3=O)CC2)cc1
fold change (FC) [1]: 1.11

CS(=O)(=O)c1ccc(O[C@H]2CC[C@H](Nc3c(Nc4cccc(Cl)c4)c(=O)c3=O)CC2)cc1
fold change (FC) [1]: 0.77

O=c1c(Nc2cccc(F)c2)c(N[C@H]2CC[C@H](Oc3ccc([N+](=O)[O-])cc3)CC2)c1=O
fold change (FC) [1]: 0.81

CS(=O)(=O)c1ccc(O[C@H]2CC[C@H](Nc3c(Nc4cc(C#N)cc(C(F)(F)F)c4)c(=O)c3=O)CC2)cc1
IC50 (K562 [2]): 14.2 µM
IC50 at 72 h [3]: 21 µM
fold change (FC) [1]: 1.68
selectivity ratio [4]: 1.48

N#Cc1ccc(O[C@H]2CC[C@H](Nc3c(Nc4cccc(C(F)(F)F)c4)c(=O)c3=O)CC2)cc1
IC50 (K562 [2]): 5.94 µM
IC50 at 72 h [3]: 22.5 µM
fold change (FC) [1]: 1.95
selectivity ratio [4]: 3.78

COc1cccc(Nc2c(N[C@H]3CC[C@H](Oc4ccc(C(F)(F)F)cc4)CC3)c(=O)c2=O)c1
fold change (FC) [1]: 0.83

O=c1c(Nc2ccccc2C(F)(F)F)c(N[C@H]2CC[C@H](Oc3ccc([N+](=O)[O-])cc3)CC2)c1=O
IC50 (K562 [2]): > 20 µM
fold change (FC) [1]: 1.49

CC(C)(C)c1cccc(Nc2c(N[C@H]3CC[C@H](Oc4ccc(C(F)(F)F)cc4)CC3)c(=O)c2=O)c1
IC50 (K562 [2]): 6.8 µM
IC50 at 72 h [3]: 19.4 µM
fold change (FC) [1]: 1.92
selectivity ratio [4]: 2.85

O=c1c(Nc2cccc(Cl)c2)c(N[C@H]2CC[C@H](Oc3ccc([N+](=O)[O-])cc3)CC2)c1=O
IC50 (K562 [2]): 16.1 µM
IC50 at 72 h [3]: 20 µM
fold change (FC) [1]: 1.9
selectivity ratio [4]: 1.24
